Data as given in patent US20250051260A1, “METHOD FOR PREPARING 4-NITRO-2-(TRIFLUOROMETHYL)ACETOPHENONE AND APPLICATION THEREOF” (MAXUNITECH INC., priority 2022, published 2025).

Tests used:
Assay in all cases: Petri dish test for herbicide bioactivity (NY/T 1155.1-2006)
Assay type in all cases: in vivo
Details in all cases: 7 days after treatment
[1] = test system: Panicum acroanthum Steud.
Source text: (§1) Test standard:NY/T 1155.1-2006 Pesticides guidelines for laboratory bioactivity tests. Part 1:Petri dish test for herbicide bioactivity
(§2) Targets: Echinochloa crusgalli (L.) Beauv, Panicum acroanthum Steud., Solanum nigrum L., Chenopodium album L.
(§3) Test agent:ethyl 2-(4-nitro-2-trifluoromethylphenyl)-2-cyanopropanoate prepared in Example 1
(§4) The test agent was weighed and dissolved in DMF to obtain a mother liquor. different amounts of mother liquor were weighed and diluted into water to prepare different doses of the test agent.
(§5) Test method:Petri dish test
(§6) 1 test agent, 1 CK (clean water control), 4 targets, and 2 replicate tests per treatment were required. Test method includes the following steps:putting two filter papers on a Petri dish with a diameter of 9 cm; adding 8 mL of the prepared test agent of different concentrations; putting 10 uniform weed seeds; and then placing in an incubator (30° C./25° C., light for 12 h/for dark 12 h). After treatment, the growth state of the test target was regularly observed, the comprehensive growth inhibition rate of each agent was visually investigated with CK about 7 days after the treatment, and the number of seedlings, stem length and root length of plants were measured, and the mergence rate, stem length, and root length and inhibition rate were calculated compared with CK.

[2] = test system: Echinochloa crusgalli (L.) Beauv
Source text: as §1, §2, §3, §4, §5, §6

Solanum nigrum L. = test system: Solanum nigrum L.
Source text: as §1, §2, §3, §4, §5, §6

Chenopodium album L. = test system: Chenopodium album L.
Source text: as §1, §2, §3, §4, §5, §6

For `CCOC(=O)C(C)(C#N)c1ccc([N+](=O)[O-])cc1C(F)(F)F` (stereo not drawn) [ethyl 2-(4-nitro-2-trifluoromethylphenyl)-2-cyanopropanoate], the “Emergence rate, inhibition rate” value ([1]; agent concentration 500) was 100.0%, the “Root length, inhibition rate” value ([1]; agent concentration 500) was 100.0% and the “Stem length, inhibition rate” value ([1]; agent concentration 500) was 100.0%. For the same compound, the “Emergence rate, inhibition rate” value ([1]; agent concentration 1000) was 100.0%, the “Root length, inhibition rate” value ([1]; agent concentration 1000) was 100.0% and the “Stem length, inhibition rate” value ([1]; agent concentration 1000) was 100.0%. For the same compound, the “Emergence rate, inhibition rate” value ([2]; agent concentration 500) was 100.0%, the “Root length, inhibition rate” value ([2]; agent concentration 500) was 100.0% and the “Stem length, inhibition rate” value ([2]; agent concentration 500) was 100.0%. The “Emergence rate, inhibition rate” value ([2]; agent concentration 1000) was 100.0%, the “Root length, inhibition rate” value ([2]; agent concentration 1000) was 100.0% and the “Stem length, inhibition rate” value ([2]; agent concentration 1000) was 100.0%. The “Emergence rate, inhibition rate” value (Solanum nigrum L.; agent concentration 500) was 100.0%, the “Root length, inhibition rate” value (Solanum nigrum L.; agent concentration 500) was 100.0% and the “Stem length, inhibition rate” value (Solanum nigrum L.; agent concentration 500) was 100.0%. For the same compound, the “Emergence rate, inhibition rate” value (Solanum nigrum L.; agent concentration 1000) was 100.0%, the “Root length, inhibition rate” value (Solanum nigrum L.; agent concentration 1000) was 100.0% and the “Stem length, inhibition rate” value (Solanum nigrum L.; agent concentration 1000) was 100.0%. For the same compound, the “Emergence rate, inhibition rate” value (Chenopodium album L.; agent concentration 100) was 63.6%, the “Root length, inhibition rate” value (Chenopodium album L.; agent concentration 100) was 100.0% and the “Stem length, inhibition rate” value (Chenopodium album L.; agent concentration 100) was 70.4%. The “Emergence rate, inhibition rate” value (Chenopodium album L.; agent concentration 500) was 100.0%, the “Root length, inhibition rate” value (Chenopodium album L.; agent concentration 500) was 100.0% and the “Stem length, inhibition rate” value (Chenopodium album L.; agent concentration 500) was 100.0%. For the same compound, the “Emergence rate, inhibition rate” value (Chenopodium album L.; agent concentration 1000) was 100.0%, the “Root length, inhibition rate” value (Chenopodium album L.; agent concentration 1000) was 100.0% and the “Stem length, inhibition rate” value (Chenopodium album L.; agent concentration 1000) was 100.0%.
